How the values were obtained:
[1] = target: T1, recombinant human mGluR4a receptors (Homo sapiens, UniProt Q14833); experiment: mGluR4 assay on HEK-expressing human mGluR4: fluorescent cell based Ca2+ mobilization assay (FLIPR); conditions: HEK-293 cells expressing hmGluR4; enhancement of EC25 glutamate response; mean of at least three independent experiments in duplicate; read-out: Ca^2+ Flux (mean EC50)
T1 construct: expressed in transfected cells
Description: mGluR4 Assay on HEK-Expressing Human mGluR4
The compounds of the present invention are positive allosteric modulators of mGluR4 receptor. Their activity was examined on recombinant human mGluR4a receptors by detecting changes in intracellular Ca^2+ concentration, using the fluorescent Ca^2+-sensitive dye Fluo-4-(AM) and a Fluorometric Imaging Plate Reader (FLIPR, Molecular Devices, Sunnyvale, Calif.).
The cDNA encoding the human metabotropic glutamate receptor (hmGluR4), (accession number NM_000841.1, NCBI Nucleotide database browser), was subcloned into an expression vector containing also the hygromycin resistance gene. In parallel, the cDNA encoding a G protein allowing redirection of the activation signal to intracellular calcium flux was subcloned into a different expression vector containing also the puromycin resistance gene. Transfection of both these vectors into HEK293 cells with PolyFect reagent (Qiagen) according to supplier's protocol, and hygromycin and puromycin treatment allowed selection of antibiotic resistant cells which had integrated stably one or more copies of the plasmids. Positive cellular clones expressing hmGluR4 were identified in a functional assay measuring changes in calcium fluxes in response to glutamate or selective known mGluR4 orthosteric agonists and antagonists. HEK-293 cells expressing hmGluR4 were maintained in media containing DMEM, dialyzed Fetal Calf Serum (10%), Glutamax™ (2 mM), Penicillin (100 units/mL), Streptomycin (100 μg/mL), Geneticin (100 μg/mL) and Hygromycin-B (40 μg/mL) and puromycin (1 μg/mL) at 37° C./5% CO2.
Human mGluR4HEK-293 cells were plated out 24 hours prior to FLIPR^384 assay in black-walled, clear-bottomed, poly-L-ornithine-coated 384-well plates at a density of 25,000 cells/well in a glutamine/glutamate free DMEM medium containing foetal bovine serum (10%), penicillin (100 units/mL) and streptomycin (100 μg/mL) at 37° C./5% CO2.
On the day of the assay, the medium was aspirated and the cells were loaded with a 3 μM solution of Fluo-4-AM (LuBioScience, Lucerne, Switzerland) in 0.03% pluronic acid. After 1 hour at 37° C./5% CO2, the non incorporated dye was removed by washing cell plate with the assay buffer and the cells were left in the dark at room temperature for […] before testing. All assays were performed in a pH 7.4 buffered-solution containing 20 mM HEPES, 143 mM NaCl, 6 mM KCl, 1 mM MgSO4, 1 mM CaCl2, 0.125 mM sulfapyrazone and 0.1% glucose.
After 10 s of basal fluorescence recording, various concentrations of the compounds of the invention were added to the cells. Changes in fluorescence levels were first monitored for 180 s in order to detect any agonist activity of the compounds. Then the cells were stimulated by an EC25 glutamate concentration for an additional 110 s in order to measure enhancing activities of the compounds of the invention. EC25 glutamate concentration is the concentration giving 25% of the maximal glutamate response.
The concentration-response curves of representative compounds of the present invention were generated using the Prism GraphPad software (Graph Pad Inc, San Diego, USA). The curves were fitted to a four-parameter logistic equation: (Y=Bottom+(Top−Bottom)/(1+10^((LogEC50−X)*Hill Slope) allowing the determination of EC50 values.
The Table 3 below represents the mean EC50 obtained from at least three independent experiments of selected molecules performed in duplicate.

T1 sequence (Q14833 33-912): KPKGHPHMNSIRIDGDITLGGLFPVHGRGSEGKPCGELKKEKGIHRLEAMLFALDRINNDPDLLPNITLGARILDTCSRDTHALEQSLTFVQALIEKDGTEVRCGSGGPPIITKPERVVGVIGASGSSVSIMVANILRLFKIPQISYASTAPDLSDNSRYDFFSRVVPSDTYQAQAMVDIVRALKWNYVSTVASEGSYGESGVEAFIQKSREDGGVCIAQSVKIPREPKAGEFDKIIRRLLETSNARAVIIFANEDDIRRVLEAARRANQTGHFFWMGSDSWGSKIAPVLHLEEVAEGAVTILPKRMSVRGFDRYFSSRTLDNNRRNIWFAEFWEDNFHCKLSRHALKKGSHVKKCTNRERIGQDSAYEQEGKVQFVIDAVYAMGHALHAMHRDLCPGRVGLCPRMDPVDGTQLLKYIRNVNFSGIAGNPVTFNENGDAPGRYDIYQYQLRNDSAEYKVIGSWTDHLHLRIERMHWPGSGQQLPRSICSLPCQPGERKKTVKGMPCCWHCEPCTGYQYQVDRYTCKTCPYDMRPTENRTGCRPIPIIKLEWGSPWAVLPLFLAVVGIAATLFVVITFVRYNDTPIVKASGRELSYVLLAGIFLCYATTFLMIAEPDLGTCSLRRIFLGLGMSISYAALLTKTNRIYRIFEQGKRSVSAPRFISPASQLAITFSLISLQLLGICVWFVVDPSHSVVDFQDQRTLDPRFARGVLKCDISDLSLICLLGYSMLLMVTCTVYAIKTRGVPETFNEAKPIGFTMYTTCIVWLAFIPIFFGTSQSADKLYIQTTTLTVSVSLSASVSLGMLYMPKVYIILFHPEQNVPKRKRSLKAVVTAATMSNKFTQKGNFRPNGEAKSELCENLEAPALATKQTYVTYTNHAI

SMILES | melting point | EC50 [1] [nM]
Fc1cccc(Nc2nc3c(s2)CCCc2[nH]ncc2-3)n1 | 314 °C (dec.) | –
c1ccc(Nc2nc3c(s2)CCc2[nH]ncc2-3)nc1 [Compound 1-1, N-(Pyridin-2-yl)-5,6-dihydro-4H-thiazolo[4,5-e]indazol-2-amine] | 297 to 299 °C | < 100
CC(C)C(=O)n1ncc2c1CCc1sc(Nc3ccccn3)nc1-2 [Compound 1-2, 2-Methyl-1-(2-(pyridin-2-ylamino)-4H-thiazolo[4,5-e]indazol-6(5H)-yl)propan-1-one] | 167 to 168 °C | –
Cc1cccc(Nc2nc3c(s2)CCc2[nH]ncc2-3)n1 [Compound 1-3, N-(6-Methylpyridin-2-yl)-5,6-dihydro-4H-thiazolo[4,5-e]indazol-2-amine] | 280 °C | 100 to 1000
Clc1cccc(Nc2nc3c(s2)CCc2[nH]ncc2-3)n1 [Compound 1-4, N-(6-Chloropyridin-2-yl)-5,6-dihydro-4H-thiazolo[4,5-e]indazol-2-amine] | > 300 °C | –
Fc1ccc(F)c(Nc2nc3c(s2)CCc2[nH]ncc2-3)c1 [Compound 1-5, N-(2,5-Difluorophenyl)-5,6-dihydro-4H-thiazolo[4,5-e]indazol-2-amine] | 270 °C (dec.) | 100 to 1000
Fc1cccc(Nc2nc3c(s2)CCc2[nH]ncc2-3)n1 [Compound 1-6, N-(6-Fluoropyridin-2-yl)-5,6-dihydro-4H-thiazolo[4,5-e]indazol-2-amine] | > 300 °C | 100 to 1000
c1ccc(Nc2nc3c(s2)CCCc2[nH]ncc2-3)nc1 [Compound 1-8, Pyridin-2-yl-(4,5,6,7-tetrahydro-3-thia-1,7,8-triaza-cyclopenta[e]azulen-2-yl)-amine] | – | < 100
CCC1Cc2[nH]ncc2-c2nc(Nc3ccccn3)sc21 (centres unmarked) [Compound 1-9, 4-Ethyl-N-(pyridin-2-yl)-5,6-dihydro-4H-thiazolo[4,5-e]indazol-2-amine] | 317 to 319 °C | –
Fc1cccnc1Nc1nc2c(s1)CCc1[nH]ncc1-2 [Compound 1-10, N-(3-Fluoropyridin-2-yl)-5,6-dihydro-4H-thiazolo[4,5-e]indazol-2-amine] | 300 °C (dec.) | –
Cc1cccc(Nc2nc3c(s2)CCCc2[nH]ncc2-3)n1 [Compound 1-11, (6-Methyl-pyridin-2-yl)-(4,5,6,7-tetrahydro-3-thia-1,7,8-triaza-cyclopenta[e]azulen-2-yl)-amine] | 312 °C (dec.) | –
Fc1ccc(Nc2nc3c(s2)CCCc2[nH]ncc2-3)nc1 [Compound 1-12, (5-Fluoro-pyridin-2-yl)-(4,5,6,7-tetrahydro-3-thia-1,7,8-triaza-cyclopenta[e]azulen-2-yl)-amine] | 314 °C (dec.) | –
Fc1cccnc1Nc1nc2c(s1)CCCc1[nH]ncc1-2 [Compound 1-13, (3-Fluoro-pyridin-2-yl)-(4,5,6,7-tetrahydro-3-thia-1,7,8-triaza-cyclopenta[e]azulen-2-yl)-amine] | 300 °C (dec.) | < 100
COc1cccc(Nc2nc3c(s2)CCCc2[nH]ncc2-3)n1 [Compound 1-14, (6-Methoxy-pyridin-2-yl)-(4,5,6,7-tetrahydro-3-thia-1,7,8-triaza-cyclopenta[e]azulen-2-yl)-amine] | 300 °C (dec.) | 1000 to 10000
Fc1ccc(Nc2nc3c(s2)CCc2[nH]ncc2-3)nc1 [Compound 1-15, N-(5-Fluoropyridin-2-yl)-5,6-dihydro-4H-thiazolo[4,5-e]indazol-2-amine] | 315 °C (dec.) | –
Clc1cccc(Nc2nc3c(s2)CCCc2[nH]ncc2-3)n1 [Compound 1-16, (6-Chloro-pyridin-2-yl)-(4,5,6,7-tetrahydro-3-thia-1,7,8-triaza-cyclopenta[e]azulen-2-yl)-amine] | 314 °C (dec.) | –
c1cnc(Nc2nc3c(s2)CCc2[nH]ncc2-3)cn1 [Compound 1-17, N-(Pyrazin-2-yl)-5,6-dihydro-4H-thiazolo[4,5-e]indazol-2-amine] | > 330 °C | –
c1n[nH]c2c1-c1nc(NC3CCCC3)sc1CC2 [Compound 1-18, N-Cyclopentyl-5,6-dihydro-4H-thiazolo[4,5-e]indazol-2-amine] | 166 to 168 °C | –
c1n[nH]c2c1-c1nc(NC3CCC3)sc1CC2 [Compound 1-20, N-Cyclobutyl-5,6-dihydro-4H-thiazolo[4,5-e]indazol-2-amine] | 144 to 146 °C | –
c1n[nH]c2c1-c1nc(NC3CC3)sc1CCC2 [Compound 1-22, Cyclopropyl-(4,5,6,7-tetrahydro-3-thia-1,7,8-triaza-cyclopenta[e]azulen-2-yl)-amine] | 178 to 182 °C | –
c1n[nH]c2c1-c1nc(NC3CCC3)sc1CCC2 [Compound 1-23, Cyclobutyl-(4,5,6,7-tetrahydro-3-thia-1,7,8-triaza-cyclopenta[e]azulen-2-yl)-amine] | 198 to 221 °C | –
c1n[nH]c2c1-c1nc(NC3CCCC3)sc1CCC2 [Compound 1-24, Cyclopentyl-(4,5,6,7-tetrahydro-3-thia-1,7,8-triaza-cyclopenta[e]azulen-2-yl)-amine] | 248 °C (dec.) | –
c1cnc(Nc2nc3c(s2)CCCc2[nH]ncc2-3)nc1 [Compound 1-25, Pyrimidin-2-yl-(4,5,6,7-tetrahydro-3-thia-1,7,8-triaza-cyclopenta[e]azulen-2-yl)-amine] | 310 °C (dec.) | –
c1cnc(Nc2nc3c(s2)CCc2[nH]ncc2-3)nc1 [Compound 1-26, N-(Pyrimidin-2-yl)-5,6-dihydro-4H-thiazolo[4,5-e]indazol-2-amine] | 281 to 282 °C | –
Cn1ccc(Nc2nc3c(s2)CCCc2[nH]ncc2-3)n1 [Compound 1-27, (1-Methyl-1H-pyrazol-3-yl)-(4,5,6,7-tetrahydro-3-thia-1,7,8-triaza-cyclopenta[e]azulen-2-yl)-amine] | 288 to 293 °C | –
Cc1ccnc(Nc2nc3c(s2)CCc2[nH]ncc2-3)n1 [Compound 1-29, N-(4-Methylpyrimidin-2-yl)-5,6-dihydro-4H-thiazolo[4,5-e]indazol-2-amine] | 283 °C (dec.) | –
Cc1ccnc(Nc2nc3c(s2)CCCc2[nH]ncc2-3)n1 [Compound 1-30, (4-Methyl-pyrimidin-2-yl)-(4,5,6,7-tetrahydro-3-thia-1,7,8-triaza-cyclopenta[e]azulen-2-yl)-amine] | 297 °C (dec.) | –
CC1(C)Cc2[nH]ncc2-c2nc(Nc3ncccn3)sc21 [Compound 1-32, 4,4-Dimethyl-N-(pyrimidin-2-yl)-5,6-dihydro-4H-thiazolo[4,5-e]indazol-2-amine] | 298 to 306 °C | –
CC1Cc2[nH]ncc2-c2nc(Nc3ncccn3)sc21 (centres unmarked) [Compound 1-33, 4-Methyl-N-(pyrimidin-2-yl)-5,6-dihydro-4H-thiazolo[4,5-e]indazol-2-amine] | > 373 °C | –
